The record followed here is the NIST ThermoML archive (doi:10.1016/j.fluid.2016.06.028).

SMILES strings stand for the structures. Numbers after ± are expanded uncertainties.

The conditions of one series: 298.15 K, Ring tensiometer.
In general, surface tension liquid-gas refers to the force per length acting along the surface. With `CC[N+](C)(C)CCOC.O=S(=O)([N-]S(=O)(=O)C(F)(F)F)C(F)(F)F`, the surface tension liquid-gas came to 47.56 ± 0.85 mN/m.

As to `COCC[N+]1(C)CCCC1.O=S(=O)([N-]S(=O)(=O)C(F)(F)F)C(F)(F)F`, the surface tension liquid-gas is on record as 49.22 ± 0.87 mN/m.

For `CCC[N+](C)(C)CC.O=S(=O)([N-]S(=O)(=O)C(F)(F)F)C(F)(F)F`, the surface tension liquid-gas was 46.56 ± 0.83 mN/m.

`COCC[N+]1(C)CCOCC1.O=S(=O)([N-]S(=O)(=O)C(F)(F)F)C(F)(F)F`: the surface tension liquid-gas is recorded as 50.14 ± 0.88 mN/m.

In the case of `COCC[N+]1(C)CCCCC1.O=S(=O)([N-]S(=O)(=O)C(F)(F)F)C(F)(F)F`, the surface tension liquid-gas was found to be 44.65 ± 0.81 mN/m.

Still in this series, the particulars now being: 298.15 K; 101.33 kPa; Liquid; Concentric cylinders viscometry.
As a reminder, the viscosity is the internal friction of a fluid under shear. In the case of `CC[N+](C)(C)CCOC.O=S(=O)([N-]S(=O)(=O)C(F)(F)F)C(F)(F)F`, the viscosity is given as 59.39 ± 6 mPa·s.

With `COCC[N+]1(C)CCCC1.O=S(=O)([N-]S(=O)(=O)C(F)(F)F)C(F)(F)F`, the viscosity is 52.19 ± 5.2 mPa·s.

Turning to `CCC[N+](C)(C)CC.O=S(=O)([N-]S(=O)(=O)C(F)(F)F)C(F)(F)F`, the viscosity came to 58.79 ± 5.9 mPa·s.

Take `COCC[N+]1(C)CCOCC1.O=S(=O)([N-]S(=O)(=O)C(F)(F)F)C(F)(F)F`: the viscosity is given as 257.6 ± 26 mPa·s.

Turning to `COCC[N+]1(C)CCCCC1.O=S(=O)([N-]S(=O)(=O)C(F)(F)F)C(F)(F)F`, the viscosity is reported as 69.89 ± 7 mPa·s.

The series is the same for the next values; noted with them: 298.15 K; 101.33 kPa; Liquid; Direct current cell with electrodes.
As for `CC[N+](C)(C)CCOC.O=S(=O)([N-]S(=O)(=O)C(F)(F)F)C(F)(F)F`, the electrical conductivity was found to be 0.288 ± 0.04 S/m.

Regarding `COCC[N+]1(C)CCCC1.O=S(=O)([N-]S(=O)(=O)C(F)(F)F)C(F)(F)F`, the electrical conductivity stood at 0.345 ± 0.04 S/m.

For `CCC[N+](C)(C)CC.O=S(=O)([N-]S(=O)(=O)C(F)(F)F)C(F)(F)F`, the electrical conductivity was found to be 0.248 ± 0.04 S/m.

For the compound `COCC[N+]1(C)CCOCC1.O=S(=O)([N-]S(=O)(=O)C(F)(F)F)C(F)(F)F`, the electrical conductivity is 0.065 ± 0.04 S/m.

Consider `COCC[N+]1(C)CCCCC1.O=S(=O)([N-]S(=O)(=O)C(F)(F)F)C(F)(F)F`, for which the electrical conductivity came to 0.209 ± 0.04 S/m.

The series is the same for the next values; noted with them: 298.15 K; 101.33 kPa; Liquid; Vibrating tube method.
For orientation: mass density means mass per unit of volume. As for `CC[N+](C)(C)CCOC.O=S(=O)([N-]S(=O)(=O)C(F)(F)F)C(F)(F)F`, the mass density was found to be 1424.9 ± 1.8 kg/m3.

As for `COCC[N+]1(C)CCCC1.O=S(=O)([N-]S(=O)(=O)C(F)(F)F)C(F)(F)F`, the mass density was 1453 ± 1.9 kg/m3.

With `CCC[N+](C)(C)CC.O=S(=O)([N-]S(=O)(=O)C(F)(F)F)C(F)(F)F`, the mass density is listed as 1403 ± 1.8 kg/m3.

With `COCC[N+]1(C)CCOCC1.O=S(=O)([N-]S(=O)(=O)C(F)(F)F)C(F)(F)F`, the mass density is reported as 1500.2 ± 2.1 kg/m3.

With `COCC[N+]1(C)CCCCC1.O=S(=O)([N-]S(=O)(=O)C(F)(F)F)C(F)(F)F`, the mass density turned out to be 1433.2 ± 1.9 kg/m3.

The series is the same for the next values; noted with them: 303.15 K, Ring tensiometer.
As to `CC[N+](C)(C)CCOC.O=S(=O)([N-]S(=O)(=O)C(F)(F)F)C(F)(F)F`, the surface tension liquid-gas was determined as 47.32 ± 0.84 mN/m.

Turning to `COCC[N+]1(C)CCCC1.O=S(=O)([N-]S(=O)(=O)C(F)(F)F)C(F)(F)F`, the surface tension liquid-gas is 48.62 ± 0.86 mN/m.

Consider `CCC[N+](C)(C)CC.O=S(=O)([N-]S(=O)(=O)C(F)(F)F)C(F)(F)F`, for which the surface tension liquid-gas was found to be 45.84 ± 0.83 mN/m.

Consider `COCC[N+]1(C)CCOCC1.O=S(=O)([N-]S(=O)(=O)C(F)(F)F)C(F)(F)F`, for which the surface tension liquid-gas is 49.3 ± 0.87 mN/m.

On to `COCC[N+]1(C)CCCCC1.O=S(=O)([N-]S(=O)(=O)C(F)(F)F)C(F)(F)F`, for which the surface tension liquid-gas was determined as 44.06 ± 0.8 mN/m.

The series is the same for the next values; noted with them: 303.15 K; 101.33 kPa; Liquid; Concentric cylinders viscometry.
Consider `CC[N+](C)(C)CCOC.O=S(=O)([N-]S(=O)(=O)C(F)(F)F)C(F)(F)F`, for which the viscosity was determined as 50.39 ± 5.1 mPa·s.

For the compound `COCC[N+]1(C)CCCC1.O=S(=O)([N-]S(=O)(=O)C(F)(F)F)C(F)(F)F`, the viscosity is 46.49 ± 4.7 mPa·s.

As for `CCC[N+](C)(C)CC.O=S(=O)([N-]S(=O)(=O)C(F)(F)F)C(F)(F)F`, the viscosity was determined as 53.39 ± 5.4 mPa·s.

For the compound `COCC[N+]1(C)CCOCC1.O=S(=O)([N-]S(=O)(=O)C(F)(F)F)C(F)(F)F`, the viscosity is 210.9 ± 22 mPa·s.

For `COCC[N+]1(C)CCCCC1.O=S(=O)([N-]S(=O)(=O)C(F)(F)F)C(F)(F)F`, the viscosity is listed as 55.79 ± 5.6 mPa·s.

The same series, now with this note: 303.15 K; 101.33 kPa; Liquid; Direct current cell with electrodes.
Regarding `CC[N+](C)(C)CCOC.O=S(=O)([N-]S(=O)(=O)C(F)(F)F)C(F)(F)F`, the electrical conductivity was found to be 0.315 ± 0.04 S/m.

On to `COCC[N+]1(C)CCCC1.O=S(=O)([N-]S(=O)(=O)C(F)(F)F)C(F)(F)F`, for which the electrical conductivity was determined as 0.402 ± 0.04 S/m.

Consider `CCC[N+](C)(C)CC.O=S(=O)([N-]S(=O)(=O)C(F)(F)F)C(F)(F)F`, for which the electrical conductivity was found to be 0.281 ± 0.04 S/m.

Take `COCC[N+]1(C)CCOCC1.O=S(=O)([N-]S(=O)(=O)C(F)(F)F)C(F)(F)F`: the electrical conductivity stood at 0.079 ± 0.04 S/m.

For `COCC[N+]1(C)CCCCC1.O=S(=O)([N-]S(=O)(=O)C(F)(F)F)C(F)(F)F`, the electrical conductivity was 0.241 ± 0.04 S/m.

The series is the same for the next values; noted with them: 303.15 K; 101.33 kPa; Liquid; Vibrating tube method.
With `CC[N+](C)(C)CCOC.O=S(=O)([N-]S(=O)(=O)C(F)(F)F)C(F)(F)F`, the mass density is 1420.5 ± 1.8 kg/m3.

`COCC[N+]1(C)CCCC1.O=S(=O)([N-]S(=O)(=O)C(F)(F)F)C(F)(F)F`: the mass density came to 1448.7 ± 1.9 kg/m3.

Consider `CCC[N+](C)(C)CC.O=S(=O)([N-]S(=O)(=O)C(F)(F)F)C(F)(F)F`, for which the mass density turned out to be 1398.8 ± 1.8 kg/m3.

`COCC[N+]1(C)CCOCC1.O=S(=O)([N-]S(=O)(=O)C(F)(F)F)C(F)(F)F`: the mass density was determined as 1495.7 ± 2 kg/m3.

Take `COCC[N+]1(C)CCCCC1.O=S(=O)([N-]S(=O)(=O)C(F)(F)F)C(F)(F)F`: the mass density amounted to 1429 ± 1.9 kg/m3.

Staying with this series, now noted: 313.15 K, Ring tensiometer.
Take `CC[N+](C)(C)CCOC.O=S(=O)([N-]S(=O)(=O)C(F)(F)F)C(F)(F)F`: the surface tension liquid-gas turned out to be 45.67 ± 0.82 mN/m.

For `COCC[N+]1(C)CCCC1.O=S(=O)([N-]S(=O)(=O)C(F)(F)F)C(F)(F)F`, the surface tension liquid-gas is listed as 47.34 ± 0.84 mN/m.

Consider `CCC[N+](C)(C)CC.O=S(=O)([N-]S(=O)(=O)C(F)(F)F)C(F)(F)F`, for which the surface tension liquid-gas came out at 44.92 ± 0.81 mN/m.

Consider `COCC[N+]1(C)CCOCC1.O=S(=O)([N-]S(=O)(=O)C(F)(F)F)C(F)(F)F`, for which the surface tension liquid-gas worked out at 48.41 ± 0.86 mN/m.

Take `COCC[N+]1(C)CCCCC1.O=S(=O)([N-]S(=O)(=O)C(F)(F)F)C(F)(F)F`: the surface tension liquid-gas was found to be 43.2 ± 0.79 mN/m.

Still in this series, the particulars now being: 313.15 K; 101.33 kPa; Liquid; Concentric cylinders viscometry.
With `CC[N+](C)(C)CCOC.O=S(=O)([N-]S(=O)(=O)C(F)(F)F)C(F)(F)F`, the viscosity was found to be 30.59 ± 3.1 mPa·s.

As for `COCC[N+]1(C)CCCC1.O=S(=O)([N-]S(=O)(=O)C(F)(F)F)C(F)(F)F`, the viscosity is listed as 34.49 ± 3.5 mPa·s.

As for `CCC[N+](C)(C)CC.O=S(=O)([N-]S(=O)(=O)C(F)(F)F)C(F)(F)F`, the viscosity worked out at 38.39 ± 3.9 mPa·s.

Regarding `COCC[N+]1(C)CCOCC1.O=S(=O)([N-]S(=O)(=O)C(F)(F)F)C(F)(F)F`, the viscosity was 127.2 ± 13 mPa·s.

On to `COCC[N+]1(C)CCCCC1.O=S(=O)([N-]S(=O)(=O)C(F)(F)F)C(F)(F)F`, for which the viscosity stood at 35.69 ± 3.6 mPa·s.

Staying with this series, now noted: 313.15 K; 101.33 kPa; Liquid; Direct current cell with electrodes.
For `CC[N+](C)(C)CCOC.O=S(=O)([N-]S(=O)(=O)C(F)(F)F)C(F)(F)F`, the electrical conductivity came to 0.357 ± 0.04 S/m.

`COCC[N+]1(C)CCCC1.O=S(=O)([N-]S(=O)(=O)C(F)(F)F)C(F)(F)F`: the electrical conductivity is 0.48 ± 0.04 S/m.

For the compound `CCC[N+](C)(C)CC.O=S(=O)([N-]S(=O)(=O)C(F)(F)F)C(F)(F)F`, the electrical conductivity stood at 0.325 ± 0.04 S/m.

For `COCC[N+]1(C)CCOCC1.O=S(=O)([N-]S(=O)(=O)C(F)(F)F)C(F)(F)F`, the electrical conductivity stood at 0.108 ± 0.04 S/m.

As to `COCC[N+]1(C)CCCCC1.O=S(=O)([N-]S(=O)(=O)C(F)(F)F)C(F)(F)F`, the electrical conductivity came to 0.287 ± 0.04 S/m.

The series is the same for the next values; noted with them: 313.15 K; 101.33 kPa; Liquid; Vibrating tube method.
Consider `CC[N+](C)(C)CCOC.O=S(=O)([N-]S(=O)(=O)C(F)(F)F)C(F)(F)F`, for which the mass density was 1411 ± 1.8 kg/m3.

For the compound `COCC[N+]1(C)CCCC1.O=S(=O)([N-]S(=O)(=O)C(F)(F)F)C(F)(F)F`, the mass density came out at 1439.3 ± 1.9 kg/m3.

On to `CCC[N+](C)(C)CC.O=S(=O)([N-]S(=O)(=O)C(F)(F)F)C(F)(F)F`, for which the mass density is 1389.8 ± 1.8 kg/m3.

On to `COCC[N+]1(C)CCOCC1.O=S(=O)([N-]S(=O)(=O)C(F)(F)F)C(F)(F)F`, for which the mass density worked out at 1486.4 ± 2 kg/m3.

In the case of `COCC[N+]1(C)CCCCC1.O=S(=O)([N-]S(=O)(=O)C(F)(F)F)C(F)(F)F`, the mass density was 1419.8 ± 1.8 kg/m3.

The same series, now with this note: 323.15 K, Ring tensiometer.
Consider `CC[N+](C)(C)CCOC.O=S(=O)([N-]S(=O)(=O)C(F)(F)F)C(F)(F)F`, for which the surface tension liquid-gas is given as 44.86 ± 0.81 mN/m.

Take `COCC[N+]1(C)CCCC1.O=S(=O)([N-]S(=O)(=O)C(F)(F)F)C(F)(F)F`: the surface tension liquid-gas is 46.18 ± 0.83 mN/m.

Regarding `CCC[N+](C)(C)CC.O=S(=O)([N-]S(=O)(=O)C(F)(F)F)C(F)(F)F`, the surface tension liquid-gas turned out to be 43.95 ± 0.8 mN/m.

Regarding `COCC[N+]1(C)CCOCC1.O=S(=O)([N-]S(=O)(=O)C(F)(F)F)C(F)(F)F`, the surface tension liquid-gas turned out to be 47.64 ± 0.85 mN/m.

As to `COCC[N+]1(C)CCCCC1.O=S(=O)([N-]S(=O)(=O)C(F)(F)F)C(F)(F)F`, the surface tension liquid-gas is 42.01 ± 0.78 mN/m.

The series is the same for the next values; noted with them: 323.15 K; 101.33 kPa; Liquid; Concentric cylinders viscometry.
On to `CC[N+](C)(C)CCOC.O=S(=O)([N-]S(=O)(=O)C(F)(F)F)C(F)(F)F`, for which the viscosity was 23.1 ± 2.3 mPa·s.

For the compound `COCC[N+]1(C)CCCC1.O=S(=O)([N-]S(=O)(=O)C(F)(F)F)C(F)(F)F`, the viscosity is 25.79 ± 2.6 mPa·s.

Turning to `CCC[N+](C)(C)CC.O=S(=O)([N-]S(=O)(=O)C(F)(F)F)C(F)(F)F`, the viscosity stood at 28.49 ± 2.9 mPa·s.

For `COCC[N+]1(C)CCOCC1.O=S(=O)([N-]S(=O)(=O)C(F)(F)F)C(F)(F)F`, the viscosity is reported as 77.98 ± 7.9 mPa·s.

As to `COCC[N+]1(C)CCCCC1.O=S(=O)([N-]S(=O)(=O)C(F)(F)F)C(F)(F)F`, the viscosity was 26 ± 2.6 mPa·s.
